Bridge positions count the residues as written; N and C are the ends. Square brackets hold non-standard residues; d marks the D form. Peptide text beside a SMILES is read from it. * marks the point of attachment. ξ: configuration not given here. Trp(5-CN) = N#Cc1ccc2[nH]cc(C[C@H](N)C(=O)O)c2c1; Phe(3,4-Cl2) = N[C@@H](Cc1ccc(Cl)c(Cl)c1)C(=O)O; Phe(3-CF3) = N[C@@H](Cc1cccc(C(F)(F)F)c1)C(=O)O; Phe(4-COOH) = N[C@@H](Cc1ccc(C(=O)O)cc1)C(=O)O; Bip = N[C@@H](Cc1ccc(-c2ccccc2)cc1)C(=O)O; dPhe(4-NH2) = Nc1ccc(C[C@@H](N)C(=O)O)cc1; Phe(3-OMe) = COc1cccc(C[C@H](N)C(=O)O)c1; Phe(3-Me) = Cc1cccc(C[C@H](N)C(=O)O)c1; 1Nal = N[C@@H](Cc1cccc2ccccc12)C(=O)O; Val(3-OH) = CC(C)(O)[C@H](N)C(=O)O; 4Pal = N[C@@H](Cc1ccncc1)C(=O)O; Cha = N[C@@H](CC1CCCCC1)C(=O)O; Ile(3ξ) = CCC(C)[C@H](N)C(=O)O; Thr(3ξ) = CC(O)[C@H](N)C(=O)O; Carboxymethyl = O=C(O)C*; NMeA = CN[C@@H](C)C(=O)O; Orn = NCCC[C@H](N)C(=O)O; Dab = NCC[C@H](N)C(=O)O; Dap = NC[C@H](N)C(=O)O
Target: T1, PE-labeled human PD-L1-Ig binding to Jurkat cell line over-expressing human PD-1 (Jurkat-PD-1) (Homo sapiens, UniProt Q15116)
T1 construct: expressed in transfected cells; host or cells: Jurkat
T1 sequence (Q15116 25-288): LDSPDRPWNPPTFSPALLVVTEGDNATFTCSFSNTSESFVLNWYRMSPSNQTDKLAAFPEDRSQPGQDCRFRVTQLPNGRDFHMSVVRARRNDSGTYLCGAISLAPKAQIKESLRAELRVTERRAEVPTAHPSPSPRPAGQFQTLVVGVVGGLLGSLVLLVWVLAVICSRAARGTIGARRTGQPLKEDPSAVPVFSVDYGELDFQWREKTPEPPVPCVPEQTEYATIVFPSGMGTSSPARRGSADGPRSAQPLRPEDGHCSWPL
Assay: Jurkat-PD-1 Cell Binding High-Content Screening Assay (CBA): Method 1
Settings: Jurkat-hPD-1 cells, PE-labeled PD-L1-Ig 20 nM final; read-out: Jurkat HPDL1 PD1 IC50 (uM) (Method 1)

SMILES	IC50
CC(C)C[C@@H]1NC(=O)[C@H](CCCNC(=N)N)NC(=O)[C@@H](Cc2ccc(N)cc2)NC(=O)[C@H](C)N(C)C(=O)[C@H](CCCNC(=N)N)NC(=O)[C@H](Cc2ccc(-c3ccccc3)cc2)NC(=O)[C@H](C(C)C)NC(=O)[C@H](Cc2c[nH]c3ccccc23)NC(=O)[C@H](CC(=O)O)NC(=O)[C@H](Cc2ccc(O)cc2)NC(=O)[C@H](Cc2ccccc2)NC(=O)CSC[C@@H](C(=O)N[C@@H](C)C(N)=O)NC(=O)[C@H]([C@@H](C)O)NC(=O)[C@H](C(C)C)NC1=O [Compound 1087] ({CH2CO}-FYDWV[Bip]R[NMeA][dPhe(4-NH2)]RLVTCA-NH2; thioether N-14)	0.33 µM
CC(C)C[C@@H]1NC(=O)[C@H](Cc2c[nH]c3ccccc23)NC(=O)[C@H](CC(=O)O)NC(=O)[C@H](Cc2cccc3ccccc23)NC(=O)[C@H](Cc2ccccc2)NC(=O)CSC[C@@H](C(=O)N[C@@H](C)C(N)=O)NC(=O)[C@H](CO)NC(=O)[C@H](C(C)C)NC(=O)[C@H](CC(C)C)NC(=O)[C@H](CC(N)=O)NC(=O)[C@@H](C)NC(=O)[C@H](C)N(C)C(=O)[C@H](C(C)C)NC(=O)[C@H](Cc2ccc(-c3ccccc3)cc2)NC1=O [Compound 1805] ({CH2CO}-F[1Nal]DWL[Bip]V[NMeA][dA]NLVSCA-NH2; thioether N-14)	0.23 µM
CC(C)C[C@@H]1NC(=O)[C@H](Cc2c[nH]c3ccccc23)NC(=O)[C@H](CC(=O)O)NC(=O)[C@H](Cc2ccc(O)cc2)NC(=O)[C@H](Cc2ccccc2)NC(=O)CSC[C@@H](C(=O)NCC(N)=O)NC(=O)[C@H](CO)NC(=O)[C@H](C(C)C)NC(=O)[C@H](CC(C)C)NC(=O)[C@H](CC(N)=O)NC(=O)[C@@H](Cc2cnc[nH]2)NC(=O)[C@H](C)N(C)C(=O)[C@H](C(C)C)NC(=O)[C@H](Cc2ccc(-c3ccccc3)cc2)NC1=O [Compound 1797] ({CH2CO}-FYDWL[Bip]V[NMeA][dH]NLVSCG-NH2; thioether N-14)	0.16 µM
CC(C)C[C@@H]1NC(=O)[C@H](CCCNC(=N)N)NC(=O)[C@@H](CC(C)C)NC(=O)[C@H](C)N(C)C(=O)[C@H](CCCNC(=N)N)NC(=O)[C@H](Cc2ccc(-c3ccccc3)cc2)NC(=O)[C@H](C(C)C)NC(=O)[C@H](Cc2ccc(Cl)c(Cl)c2)NC(=O)[C@H](CC(=O)O)NC(=O)[C@H](Cc2ccc(O)cc2)NC(=O)[C@H](CC(N)=O)NC(=O)CSC[C@@H](C(=O)N[C@@H](C)C(N)=O)NC(=O)[C@H]([C@@H](C)O)NC(=O)[C@H](C(C)C)NC1=O [Compound 1195] ({CH2CO}-NYD[Phe(3,4-Cl2)]V[Bip]R[NMeA][dL]RLVTCA-NH2; thioether N-14)	0.32 µM
CC[C@H](C)[C@@H]1NC(=O)[C@H](Cc2ccc(-c3ccccc3)cc2)NC(=O)[C@H](C(C)(C)O)NC(=O)[C@H](Cc2cccc(C)c2)NC(=O)[C@H](CC(=O)O)NC(=O)[C@H](Cc2ccc(O)cc2)NC(=O)[C@H](CC(N)=O)NC(=O)CSC[C@@H](C(=O)N[C@@H](CCN)C(N)=O)NC(=O)[C@H]([C@@H](C)O)NC(=O)[C@H](C(C)(C)O)NC(=O)[C@H](CC(C)C)NC(=O)[C@H](CCN)NC(=O)[C@@H](CC(C)C)NC(=O)[C@H](C)N(C)C1=O [Compound 1687] ({CH2CO}-NYD[Phe(3-Me)][Val(3-OH)][Bip]I[NMeA][dL][Dab]L[Val(3-OH)]TC[Dab]-NH2; thioether N-14)	0.11 µM
CC(C)C[C@@H]1NC(=O)[C@H](CCN)NC(=O)[C@@H](CC(C)C)NC(=O)[C@H](C)N(C)C(=O)[C@H](CCCNC(=N)N)NC(=O)[C@H](Cc2ccc(-c3ccccc3)cc2)NC(=O)[C@H](C(C)C)NC(=O)[C@H](Cc2c[nH]c3ccc(C#N)cc23)NC(=O)[C@H](CC(=O)O)NC(=O)[C@H](Cc2ccc(O)cc2)NC(=O)[C@H](Cc2ccccc2)NC(=O)CSC[C@@H](C(=O)N[C@@H](C)C(N)=O)NC(=O)[C@H]([C@@H](C)O)NC(=O)[C@H](C(C)C)NC1=O [Compound 1203] ({CH2CO}-FYD[Trp(5-CN)]V[Bip]R[NMeA][dL][Dab]LVTCA-NH2; thioether N-14)	0.1 µM
CC(C)C[C@@H]1NC(=O)[C@H](CCCNC(=N)N)NC(=O)[C@@H](Cc2ccccc2)NC(=O)[C@H](C)N(C)C(=O)[C@H](CCCNC(=N)N)NC(=O)[C@H](Cc2ccc(-c3ccccc3)cc2)NC(=O)[C@H](C(C)C)NC(=O)[C@H](Cc2c[nH]c3ccccc23)NC(=O)[C@H](CC(=O)O)NC(=O)[C@H](Cc2ccc(O)cc2)NC(=O)[C@H](Cc2cnc[nH]2)NC(=O)CSC[C@@H](C(=O)NCC(N)=O)NC(=O)[C@H](CO)NC(=O)[C@H](C(C)C)NC1=O [Compound 1031] ({CH2CO}-HYDWV[Bip]R[NMeA][dF]RLVSCG-NH2; thioether N-14)	0.09 µM

Now those with a lower IC50, led by results:

IC50	SMILES
0.02 µM	COc1cccc(C[C@@H]2NC(=O)[C@H](CC(=O)O)NC(=O)[C@H](Cc3ccc(O)cc3)NC(=O)[C@H](CC(N)=O)NC(=O)CSC[C@@H](C(=O)N[C@@H](C)C(N)=O)NC(=O)[C@H]([C@@H](C)O)NC(=O)[C@H](C(C)C)NC(=O)[C@H](CC(C)C)NC(=O)[C@H](CCN)NC(=O)[C@@H](CC(C)C)NC(=O)[C@H](C)N(C)C(=O)[C@H](C(C)C)NC(=O)[C@H](Cc3ccc(-c4ccccc4)cc3)NC(=O)[C@H](C(C)C)NC2=O)c1 [Compound 1277] ({CH2CO}-NYD[Phe(3-OMe)]V[Bip]V[NMeA][dL][Dab]LVTCA-NH2; thioether N-14)
0.04 µM	Cc1cccc(C[C@@H]2NC(=O)[C@H](CC(=O)O)NC(=O)[C@H](Cc3ccc(C(=O)O)cc3)NC(=O)[C@H](CN)NC(=O)CSC[C@@H](C(=O)N[C@@H](C)C(N)=O)NC(=O)[C@H]([C@@H](C)O)NC(=O)[C@H](C(C)C)NC(=O)[C@H](CC(C)C)NC(=O)[C@H](CCN)NC(=O)[C@@H](CC(C)C)NC(=O)[C@H](C)N(C)C(=O)[C@H](C(C)C)NC(=O)[C@H](Cc3ccc(-c4ccccc4)cc3)NC(=O)[C@H](C(C)C)NC2=O)c1 [Compound 1415] ({CH2CO}-[Dap][Phe(4-COOH)]D[Phe(3-Me)]V[Bip]V[NMeA][dL][Dab]LVTCA-NH2; thioether N-14)
0.03 µM	CC(C)C[C@@H]1NC(=O)[C@H](Cc2c[nH]c3ccccc23)NC(=O)[C@H](CC(=O)O)NC(=O)[C@H](Cc2ccc(OCC(=O)O)cc2)NC(=O)[C@H](Cc2ccccc2)NC(=O)CSC[C@@H](C(=O)N[C@@H](C)C(N)=O)NC(=O)[C@H](CO)NC(=O)[C@H](C(C)C)NC(=O)[C@H](CC(C)C)NC(=O)[C@H](CC(N)=O)NC(=O)[C@@H](CC(C)C)NC(=O)[C@H](C)N(C)C(=O)[C@H](CCCCN)NC(=O)[C@H](Cc2ccc(-c3ccccc3)cc2)NC1=O [Compound 2030] ({CH2CO}-FY(Carboxymethyl)DWL[Bip]K[NMeA][dL]NLVSCA-NH2; thioether N-14)
0.01 µM	CC(C)C[C@@H]1NC(=O)[C@H](CCN)NC(=O)[C@@H](CC(C)C)NC(=O)[C@H](C)N(C)C(=O)[C@H](C(C)C)NC(=O)[C@H](Cc2ccc(-c3ccccc3)cc2)NC(=O)[C@H](C(C)C)NC(=O)[C@H](Cc2cccc(C(F)(F)F)c2)NC(=O)[C@H](CC(=O)O)NC(=O)[C@H](Cc2ccc(O)cc2)NC(=O)[C@H](CC(N)=O)NC(=O)CSC[C@@H](C(=O)N[C@@H](C)C(N)=O)NC(=O)[C@H]([C@@H](C)O)NC(=O)[C@H](C(C)C)NC1=O [Compound 1290] ({CH2CO}-NYD[Phe(3-CF3)]V[Bip]V[NMeA][dL][Dab]LVTCA-NH2; thioether N-14)
0.03 µM	CC(C)C[C@@H]1NC(=O)[C@H](CCCN)NC(=O)[C@@H](CC(C)C)NC(=O)[C@H](C)N(C)C(=O)[C@H](CCCNC(=N)N)NC(=O)[C@H](Cc2ccc(-c3ccccc3)cc2)NC(=O)[C@H](C(C)C)NC(=O)[C@H](Cc2c[nH]c3ccccc23)NC(=O)[C@H](CC(=O)O)NC(=O)[C@H](Cc2ccc(O)cc2)NC(=O)[C@H](Cc2ccccc2)NC(=O)CSC[C@@H](C(=O)N[C@@H](C)C(N)=O)NC(=O)[C@H]([C@@H](C)O)NC(=O)[C@H](C(C)C)NC1=O [Compound 1119] ({CH2CO}-FYDWV[Bip]R[NMeA][dL][Orn]LVTCA-NH2; thioether N-14)
0.02 µM	CC[C@H](C)[C@@H]1NC(=O)[C@H](Cc2ccc(-c3ccccc3)cc2)NC(=O)[C@H](C(C)C)NC(=O)[C@H](Cc2c[nH]c3ccccc23)NC(=O)[C@H](CC(=O)O)NC(=O)[C@H](Cc2ccc(O)cc2)NC(=O)[C@H](Cc2ccncc2)NC(=O)CSC[C@@H](C(=O)N[C@@H](C)C(N)=O)NC(=O)[C@H]([C@@H](C)O)NC(=O)[C@H](C(C)C)NC(=O)[C@H](CC(C)C)NC(=O)[C@H](CCN)NC(=O)[C@@H](CC(C)C)NC(=O)[C@H](C)N(C)C1=O [Compound 1400] ({CH2CO}-[4Pal]YDWV[Bip]I[NMeA][dL][Dab]LVTCA-NH2; thioether N-14)
0.04 µM	CC(C)C[C@@H]1NC(=O)[C@H](Cc2c[nH]c3ccccc23)NC(=O)[C@H](CC(=O)O)NC(=O)[C@H](Cc2ccc(O)cc2)NC(=O)[C@H](Cc2ccccc2)NC(=O)CSC[C@@H](C(=O)N[C@@H](C)C(N)=O)NC(=O)[C@H](CO)NC(=O)[C@H](C(C)C)NC(=O)[C@H](CC(C)C)NC(=O)[C@H](CC(N)=O)NC(=O)[C@@H](C(C)C)NC(=O)[C@H](C)N(C)C(=O)[C@H](C(C)C)NC(=O)[C@H](Cc2ccc(-c3ccccc3)cc2)NC1=O [Compound 1771] ({CH2CO}-FYDWL[Bip]V[NMeA][dV]NLVSCA-NH2; thioether N-14)
0.01 µM	CCC(C)[C@@H]1NC(=O)[C@H](Cc2ccc(-c3ccccc3)cc2)NC(=O)[C@H](C(C)C)NC(=O)[C@H](Cc2c[nH]c3ccccc23)NC(=O)[C@H](CC(=O)O)NC(=O)[C@H](Cc2ccc(O)cc2)NC(=O)[C@H](CC(N)=O)NC(=O)CSC[C@@H](C(=O)N[C@@H](C)C(N)=O)NC(=O)[C@H](C(C)O)NC(=O)[C@H](C(C)C)NC(=O)[C@H](CC2CCCCC2)NC(=O)[C@H](CCN)NC(=O)[C@@H](CC(C)C)NC(=O)[C@H](C)N(C)C1=O (stereo partly drawn) [Compound 2061] ({CH2CO}-NYDWV[Bip][Ile(3ξ)][NMeA][dL][Dab][Cha]V[Thr(3ξ)]CA-NH2; thioether N-14)
